Measured values taken from patent US12344631B2, “C17 polar-substituted heteroaromatic synthetic triterpenoids and methods of use thereof” (REATA PHARMACEUTICALS, INC., priority 2019, dated 2025).

Columns and labels:
RAW 264.7 cells = assay: Nitric oxide suppression assay (IFNγ-induced NO production); type: cell-based, mouse; conditions: for IC50: Mus musculus, RAW264.7, RAW 264.7 cells, 2 h pretreatment, 20 ng/mL interferon gamma 24 h, nitrite by Griess, read-out: NO IC50 (nM) (Mean ± SD); for NO IC50 Relative to RTA 402 (fold) (Mean ± SD): average of ratios from replicate experiments, benchmark RTA 402
Experimental: Tissue Culture. RAW 264.7, a mouse macrophage cell line, was obtained from American Type Culture Collection (Manassas VA) and maintained in the log phase of growth in Roswell Park Memorial Institute Medium 1640 (RPMI 1640) supplemented with 10% heat inactivated fetal bovine serum (FBS) and 1% penicillin-streptomycin. Cells were cultured and maintained in a humidified incubator at 37° C. under 5% CO2. Cells were sub-cultured every 3 days. […] All cell culture supplies were obtained from Life Technologies (Grand Island, NY) and VWR (Radnor, PA). Nitric Oxide Suppression Assay. RAW 264.7 cells were plated 1 day in advance of experimental treatments at a concentration of 30,000 cells per well onto Falcon-96 well clear bottom plates (Corning, NY) in a total volume of 200 μL per well using RPMI 1640 supplemented with 0.5% fetal bovine serum and 1% penicillin-streptomycin. The next day, cells were pretreated with compounds serially diluted from 1000× stocks. All compounds were dissolved in dimethyl sulfoxide (DMSO) at 10 mM stock solutions. Compounds were subsequently diluted in DMSO and RPMI 1640. Each well received a final concentration of 0.1% DMSO. Cells were pretreated for 2 hours and incubation at 37° C., followed by treatment with 20 ng/mL of interferon gamma (R&D Systems, Minneapolis, MN) per well for 24 hours. […] Afterwards, 50 μL of cell culture supernatant was transferred from each well into a new Falcon-96 well clear bottom plate. […] Afterwards, air bubbles were removed using ethanol vapor and absorbance was measured using a Spectramax M2e plate reader with a wavelength set to 525 nm. Viability was assessed using WST-1 cell proliferation reagent from Roche (Basel, Switzerland). After media was removed for the Nitric Oxide suppression assay, 15 μL of WST-1 reagent was added to each well of cells. Plates were briefly mixed on an orbital shaker and the cells were incubated at 37° C. for 30 minutes. Absorbance was measured using a Spectramax M2e plate reader with wavelengths set to 440 nm and 700 nm. For the ability of compounds to suppress the increase in nitric oxide release caused by interferon gamma, the absolute amount of nitrite that was produced in each well was extrapolated from the nitrite standards using a linear regression fit. All values were then normalized to the DMSO-interferon gamma treated wells and plotted as percent nitric oxide. IC50 values were calculated with a dependence on WST1 viability using Excel and/or GraphPad Prism (San Diego, CA).

[1] = test system: AREc32 reporter cell line (antioxidant response element of rat Gsta2, Nrf2 target gene); assay: AREc32 luciferase reporter activation; type: cell-based, human; conditions: for EC (2-fold): human, Arec32, 19 h, concentration increasing luminescence signal 2-fold above vehicle, nineteen hours, read-out: AREc32 EC2X (nM) (Mean ± SD); for AREc32 EC2X Relative to RTA 402 (fold) (Mean ± SD): average of ratios from replicate experiments, benchmark RTA 402
Experimental: […] The effect of several compounds disclosed herein on luciferase reporter activation was assessed in the AREc32 reporter cell line (see Table 10 and Table 11). This cell line is derived from human breast carcinoma MCF-7 cells and is stably transfected with a luciferase reporter gene under the transcriptional control of eight copies of the antioxidant response element from the rat Gsta2 gene, an Nrf2 target gene ([…] et al., 1990). […] Twenty-four hours after plating, cells were treated with vehicle (DMSO) or test compounds at concentrations ranging from 0.03 to 1000 nM for nineteen hours. Media was removed and 100 μL of 1:1 mixture of the One-Glo Luciferase assay reagent and culture medium was added to each well. After incubation for 5 min at room temperature, the luminescence signal was measured on a PHERAstar plate reader. The EC2X value was determined using Excel and GraphPad Prism software. The fold increase in luminescence signal for cells treated with each concentration of compound relative to cells treated with vehicle was determined and a dose-response curve was generated. The dose-response curve was fit using nonlinear regression analysis and used to extrapolate the EC2X value.

[2] = test system: AML-12 hepatocyte cell line; assay: Glutathione assay (total glutathione, GSH-Glo); type: cell-based, mouse
Experimental: The effect of compound treatment on total glutathione levels was evaluated in the mouse AML-12 hepatocyte cell line. Glutathione—a tripeptide consisting of cysteine, glutamate, and glycine—is the major thiol-containing protein within the cell and regulates cellular redox balance. Glutathione also plays important roles in detoxification, protein glutathionylation, and iron-sulfur cluster biogenesis (Bachhawat and Yadav, 2018). Nrf2 regulates the expression of many genes involved in glutathione synthesis and metabolism, including both subunits of glutamate cysteine ligase (GCL), the enzyme that catalyzes the rate limiting step of glutathione biosynthesis (Thimmulappa et al., 2002). […] The next day, cells were treated with vehicle (DMSO) or test compound (0.03 nM to 1000 nM). Each well received a final concentration of 0.1% DMSO. Cells were incubated at 37° C., 5% CO2 for 24 hours. Total glutathione concentrations were measured using the GSH-Glo Glutathione Assay kit (Promega) according to the manufacturer's instructions. Briefly, a standard curve was prepared by serially diluting the provided glutathione solution. […] After a 30-minute incubation at room temperature, 100 μL of Luciferin detection reagent was added to all sample and standard wells and incubated for 15 minutes. Luminescence was measured using a PHERAstar plate reader. The EC50 value was determined using Excel and GraphPad Prism software. The basal concentration of glutathione was set to 0% and the highest concentration of glutathione produced following treatment with a test compound was set to 100% and a dose-response curve was generated. The dose-response curve was fit using nonlinear regression analysis and used to extrapolate the EC50 value.

Structure (SMILES)	IC50 (RAW 264.7 cells) [nM]	NO IC50 Relative to RTA 402 (fold) (Mean ± SD) (RAW 264.7 cells)	EC (2-fold) [1] [nM]	EC50 ([2]; Mus musculus, AML12, AML-12 cells, 24 hours, total glutathione, read-out: GSH EC50 (nM) (Mean ± SD))	GSH EC50 Relative to RTA 402 (fold) (Mean ± SD) ([2]; benchmark RTA 402)	AREc32 EC2X Relative to RTA 402 (fold) (Mean ± SD) [1]
Cc1nnc([C@]23CCC(C)(C)C[C@H]2[C@H]2C(=O)C=C4[C@@]5(C)C=C(C#N)C(=O)[C@@H](C)[C@@H]5CC[C@@]4(C)[C@]2(C)CC3)o1 [CC4, reference compound]	0.66 ± 0.06	0.51 ± 0.02	8.12 ± 3.53	–	–	–
CC1(C)CC[C@]2(c3noc(CCN)n3)CC[C@]3(C)[C@H](C(=O)C=C4[C@@]5(C)C=C(C#N)C(=O)C(C)(C)[C@@H]5CC[C@]43C)[C@@H]2C1 [Compound T3]	2.6	0.69 ± 0.22	9.21 ± 3.66	1.45 ± 0.28	0.54 ± 0.06	0.91 ± 0.29
CC(=O)OCCn1nnc([C@]23CCC(C)(C)C[C@H]2[C@H]2C(=O)C=C4[C@@]5(C)C=C(C#N)C(=O)C(C)(C)[C@@H]5CC[C@@]4(C)[C@]2(C)CC3)n1 [Compound T8]	0.64	0.41	–	–	–	–
COCCn1nnc([C@]23CCC(C)(C)C[C@H]2[C@H]2C(=O)C=C4[C@@]5(C)C=C(C#N)C(=O)C(C)(C)[C@@H]5CC[C@@]4(C)[C@]2(C)CC3)n1 [Compound T9]	1.27	0.82	–	–	–	–
CC(=O)OCCc1noc([C@]23CCC(C)(C)C[C@H]2[C@H]2C(=O)C=C4[C@@]5(C)C=C(C#N)C(=O)C(C)(C)[C@@H]5CC[C@@]4(C)[C@]2(C)CC3)n1 [Compound T14]	0.48	0.31	–	–	–	–
COCCc1noc([C@]23CCC(C)(C)C[C@H]2[C@H]2C(=O)C=C4[C@@]5(C)C=C(C#N)C(=O)C(C)(C)[C@@H]5CC[C@@]4(C)[C@]2(C)CC3)n1 [Compound T15]	0.6 ± 0.05	0.38 ± 0.04	–	–	–	–
COC(=O)NCCc1noc([C@]23CCC(C)(C)C[C@H]2[C@H]2C(=O)C=C4[C@@]5(C)C=C(C#N)C(=O)C(C)(C)[C@@H]5CC[C@@]4(C)[C@]2(C)CC3)n1 [Compound T17]	0.75	0.48	–	–	–	–
CCNC(=O)NCCc1noc([C@]23CCC(C)(C)C[C@H]2[C@H]2C(=O)C=C4[C@@]5(C)C=C(C#N)C(=O)C(C)(C)[C@@H]5CC[C@@]4(C)[C@]2(C)CC3)n1 [Compound T18]	1.33	0.86	–	–	–	–
CC(=O)NCCc1noc([C@]23CCC(C)(C)C[C@H]2[C@H]2C(=O)C=C4[C@@]5(C)C=C(C#N)C(=O)C(C)(C)[C@@H]5CC[C@@]4(C)[C@]2(C)CC3)n1 [Compound T19]	0.94	0.60	–	–	–	–
CCCc1noc([C@]23CCC(C)(C)C[C@H]2[C@H]2C(=O)C=C4[C@@]5(C)C=C(C#N)C(=O)C(C)(C)[C@@H]5CC[C@@]4(C)[C@]2(C)CC3)n1 [Compound T26]	7.82	4.83	–	–	–	–
CC(C)c1noc([C@]23CCC(C)(C)C[C@H]2[C@H]2C(=O)C=C4[C@@]5(C)C=C(C#N)C(=O)C(C)(C)[C@@H]5CC[C@@]4(C)[C@]2(C)CC3)n1 [Compound T27]	6.03	3.72	–	–	–	–
CC1(C)CC[C@]2(c3nc(C(C)(C)C)no3)CC[C@]3(C)[C@H](C(=O)C=C4[C@@]5(C)C=C(C#N)C(=O)C(C)(C)[C@@H]5CC[C@]43C)[C@@H]2C1 [Compound T28]	22.3	13.75	–	–	–	–
CC1(C)CC[C@]2(c3nc(C4CC4)no3)CC[C@]3(C)[C@H](C(=O)C=C4[C@@]5(C)C=C(C#N)C(=O)C(C)(C)[C@@H]5CC[C@]43C)[C@@H]2C1 [Compound T29]	4.03	2.49	43.7	–	–	2.84
CC1(C)CC[C@]2(c3nc(CC4CC4)no3)CC[C@]3(C)[C@H](C(=O)C=C4[C@@]5(C)C=C(C#N)C(=O)C(C)(C)[C@@H]5CC[C@]43C)[C@@H]2C1 [Compound T30]	4.82	2.97	64.5	–	–	4.19
CC1(C)CC[C@]2(c3nc(C4CCC4)no3)CC[C@]3(C)[C@H](C(=O)C=C4[C@@]5(C)C=C(C#N)C(=O)C(C)(C)[C@@H]5CC[C@]43C)[C@@H]2C1 [Compound T31]	9.34	5.76	–	–	–	–
CC1(C)CC[C@]2(c3nc(C4CCCC4)no3)CC[C@]3(C)[C@H](C(=O)C=C4[C@@]5(C)C=C(C#N)C(=O)C(C)(C)[C@@H]5CC[C@]43C)[C@@H]2C1 [Compound T32]	20.8	12.84	–	–	–	–
CC1(C)CC[C@]2(c3nc(C4CCCCC4)no3)CC[C@]3(C)[C@H](C(=O)C=C4[C@@]5(C)C=C(C#N)C(=O)C(C)(C)[C@@H]5CC[C@]43C)[C@@H]2C1 [Compound T33]	25.6	15.81	–	–	–	–
C[C@@H]1C(=O)C(C#N)=C[C@]2(C)C3=CC(=O)[C@@H]4[C@@H]5CC(C)(C)CC[C@]5(c5nnc(CF)o5)CC[C@@]4(C)[C@]3(C)CC[C@@H]12 [Compound T38]	0.46 ± 0.02	0.20 ± 0.02	3.95 ± 1.12	–	–	0.43 ± 0.14
C[C@@H]1C(=O)C(C#N)=C[C@]2(C)C3=CC(=O)[C@@H]4[C@@H]5CC(C)(C)CC[C@]5(c5noc(CF)n5)CC[C@@]4(C)[C@]3(C)CC[C@@H]12 [Compound T39]	1.98	0.42	1.88	–	–	0.20
CC1(C)CC[C@]2(c3nc(CO)no3)CC[C@]3(C)[C@H](C(=O)C=C4[C@@]5(C)C=C(C#N)C(=O)C(C)(C)[C@@H]5CC[C@]43C)[C@@H]2C1 [Compound T42]	0.44	0.32	2.58	–	–	0.26
